Measurements from paper PMC11187126, “Structure and dynamics of the pyroglutamylated RF-amide peptide QRFP receptor GPR103” (Nature Communications, 2024).
Where two headings read alike, the source gives them in different places. No end group written: not given here.

Target: T1, GPR103 F11N-termA (Homo sapiens, UniProt Q96P65, F11A)
T1 construct: we used human full-length QRFPR-encoding plasmids; expressed in transfected cells; host or cells: HEK293 cells, pCAGGS vector
T1 sequence (Q96P65 1-431 F11A): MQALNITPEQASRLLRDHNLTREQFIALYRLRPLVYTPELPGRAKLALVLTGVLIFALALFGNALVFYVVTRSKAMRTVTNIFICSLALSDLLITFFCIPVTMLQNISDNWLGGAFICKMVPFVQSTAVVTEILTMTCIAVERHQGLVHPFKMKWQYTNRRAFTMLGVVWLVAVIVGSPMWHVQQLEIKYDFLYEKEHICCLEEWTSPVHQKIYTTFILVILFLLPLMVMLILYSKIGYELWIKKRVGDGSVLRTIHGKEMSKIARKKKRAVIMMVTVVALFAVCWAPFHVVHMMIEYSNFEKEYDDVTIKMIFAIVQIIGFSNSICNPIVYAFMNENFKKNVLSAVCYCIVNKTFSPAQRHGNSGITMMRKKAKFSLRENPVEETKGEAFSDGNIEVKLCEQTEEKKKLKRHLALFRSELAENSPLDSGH
Experiment: TGFα shedding assay; Exp. level WT (1:10)
Type: cell-based
Method: For the TGFα shedding assay and the flow cytometry analysis, we used human full-length QRFPR-encoding plasmids. Specifically, GPR103 was N-terminally modified with an HA signal sequence followed by a FLAG epitope and then a flexible linker ([…]; the FLAG epitope is underlined) and inserted into the pCAGGS vector. Plasmid encoding GPR103 mutants were generated using Quickchange Site-Directed Mutagensis kit (Agilent).
The TGFα shedding assay was performed as described previously with minor modifications. Plasmid transfection was performed in a 6-well plate with a mixture of 500 ng (per well in a 6-well plate) AP-TGFα-encoding plasmid and 200 ng GPR103-encoding plasmid. After 1-day culture, the transfected cells were harvested by trypsinization, pelleted by centrifugation at 190 × g for 5 min, and washed once with 5 mM HEPES (pH 7.4)-containing Hank’s Balanced Salt Solution (HBSS). After centrifugation, the cells were resuspended in 8 mL of the HEPES-containing HBSS. The cell suspension was seeded in a 96-well culture plate (cell plate) at a volume of 90 μL (per well hereafter) and incubated in a 37 °C incubator with 5% CO2 for 30 min. […] After spinning the cell plates at 190 × g for 2 min, 80 μL of conditioned media was transferred to an empty 96-well plate (conditioned media (CM) plate). Then, 80 μL of AP reaction solution (10 mM p-nitrophenylphosphate (p-NPP), 120 mM Tris-HCl (pH 9.5), 40 mM NaCl, and 10 mM MgCl2) was dispensed into the cell plates and the CM plates. Absorbance at 405 nm of the plates was measured using a microplate reader (SpectraMax 340 PC384, Molecular Devices) before and after 1-h incubation at room temperature. Ligand-induced AP-TGFα release was calculated by subtracting spontaneous AP-TGFα release signal from ligand-induced AP-TGFα release signal. The AP-TGFα release signals were fitted to a four-parameter sigmoidal concentration–response curve, using the Prism 10 software (GraphPad Prism). For each replicate experiment, the pEC50 parameter (negative logarithmic values of EC50 values) of the individual GPR103 mutants were normalized to that of the wild-type GPR103 performed in parallel, and resulting ∆pEC50 values were used to denote ligand response activity of the mutants. […]
Exp. le vel: WT (1:5 0)Exp. le vel: WT (1:5 0)Exp. le vel: WT (1:5 0)Exp. le vel: WT (1:2 0)Exp. le vel: WT (1:2 0)Exp. le vel: WT (1:1 0) […]
L1 4N - t e r mA F2 5N - t e r mA I 2 6N - t e r mA Y 2 9N - t e r mA C 9 82 .5 7A T10 22 .6 1A Exp . l eve l: WT (1 :5)Exp . l evel : >WT (1 :1)Exp. le vel: WT (1:2 0)Exp. le vel: WT (1:2 0)Exp. le vel: WT (1:5 0)Exp . l eve l: WT (1 :1) […]
Exp. le vel: WT (1:1 0)Exp. le vel: WT (1:2 0) C 1 1 83 .2 5AExp. le vel: WT (1:5 0)Exp. le vel: WT (1:5 0)Exp. le vel: WT (1:2 0)Exp . l eve l: WT (1 :5) […]
Exp. le vel: WT (1:5 0)Exp. le vel: WT (1:1 0)Exp. le vel: WT (1:5 0) E203ECL2AExp . l evel : >WT (1 :1)Exp. le vel: WT (1:5 0)Exp. le vel: WT (1:5 0) […]
Exp . l eve l: WT (1 :1) F28Exp. le vel: WT (1:5 0) C 2 8 56 .4 7AExp. le vel: WT (1:2 0) WExp. le vel: WT (1:2 0) F28Exp. le vel: WT (1:5 0)Exp . l evel : >WT (1 :1) […]
Exp. le vel: WT (1:5 0)Exp. le vel: WT (1:5 0) C 3 2 77 .4 8AExp . l eve l: WT (1 :5)Exp . l evel : >WT (1 :1)Exp . l evel : >WT (1 :1) […]
Suppl eme nt ary Figure 1 | Mutational analysis of GPR103. […]
mutants. Data are presented as mean values ± SEM, normally n=3-5; dots), each performed in triplicate. b-d Cell-surface expression (b) and QRFP26-in-duced activation of GPR103 (c, d) were analyzed by the flow cytometry and the TGFα shedding assay, respectively. From the concentration–response curves (a), Emax (c) and ΔpEC50 (d) values relative to the wild type were calculated. Colors in the mutant bars indicate an expression level matching to that of titrated wild type. Statistical analyses were performed using the ordinary one-way ANOVA followed by Dunnett tests with the expression-matched […]

Work on TSGPLGNLAEELNGYSRKKGGFSFRF-NH2 [QRFP26] yielded an Emax (Exp. #1) of 103.83 % WT, an Emax (Exp. #2) of 92.88 % WT and an Emax (Exp. #3) of 104.15 % WT. For the same substance, the Emax (mean, read-out: Emax) was 100%, the EC50 (n = 3) was 178 nM and the Emax (n = 3, read-out: Emax) was 104 ± 3%.
